Results on 31 compounds are retold here after patent US6875761B2 (Eisai Co., Ltd., priority 1997, dated 2005).

Counter-ions that a name gives are not always drawn.

One experiment has as its target T1, serotonin 2 receptor (Rattus norvegicus, UniProt P14842).
T1 construct: To the receptor fraction of the cerebral cortex were added a test compound and 0.3 nM of [^3H] ketanserin; from tissue; host or cells: rat cerebral cortex membrane fraction
As to the kind of experiment: Binding test on [3H] ketanserin, cerebral cortex receptor fraction. The arrangement: species or system SD rats. The settings on record: 0.3 nM [3H] ketanserin, 37° C. 15 min, read-out: 5HT2.

A further experiment concerns the target T2, serotonin 1A receptor (Rattus norvegicus, UniProt P19327).
T2 construct: To the receptor fraction of the hippocampus were added a test compound and 0.5 nM of [^3H]; 8-hydroxy-dipropylaminotetralin; from tissue; host or cells: rat hippocampus membrane fraction
T2 sequence (P19327 1-422): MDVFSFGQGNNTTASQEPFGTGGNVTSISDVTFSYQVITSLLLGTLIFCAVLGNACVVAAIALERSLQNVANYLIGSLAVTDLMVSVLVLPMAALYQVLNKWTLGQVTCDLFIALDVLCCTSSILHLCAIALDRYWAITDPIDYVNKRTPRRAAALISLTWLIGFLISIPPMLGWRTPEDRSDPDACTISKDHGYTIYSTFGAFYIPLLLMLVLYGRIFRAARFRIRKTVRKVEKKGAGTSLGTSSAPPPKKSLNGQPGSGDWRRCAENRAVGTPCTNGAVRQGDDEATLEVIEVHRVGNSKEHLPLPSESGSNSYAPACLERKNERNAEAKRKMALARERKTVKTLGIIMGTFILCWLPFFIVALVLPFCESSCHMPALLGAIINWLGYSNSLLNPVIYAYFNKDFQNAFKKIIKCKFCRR
The experiment is described as follows: Binding test on [3H] 8-hydroxy-dipropylaminotetralin, hippocampus receptor fraction. The arrangement: species or system SD rats. The note with it: rat hippocampus receptor fraction, 0.5 nM [3H] 8-OH-DPAT, room temperature 30 min; read-out: 5HT1.

T1 sequence (P14842 whole entry): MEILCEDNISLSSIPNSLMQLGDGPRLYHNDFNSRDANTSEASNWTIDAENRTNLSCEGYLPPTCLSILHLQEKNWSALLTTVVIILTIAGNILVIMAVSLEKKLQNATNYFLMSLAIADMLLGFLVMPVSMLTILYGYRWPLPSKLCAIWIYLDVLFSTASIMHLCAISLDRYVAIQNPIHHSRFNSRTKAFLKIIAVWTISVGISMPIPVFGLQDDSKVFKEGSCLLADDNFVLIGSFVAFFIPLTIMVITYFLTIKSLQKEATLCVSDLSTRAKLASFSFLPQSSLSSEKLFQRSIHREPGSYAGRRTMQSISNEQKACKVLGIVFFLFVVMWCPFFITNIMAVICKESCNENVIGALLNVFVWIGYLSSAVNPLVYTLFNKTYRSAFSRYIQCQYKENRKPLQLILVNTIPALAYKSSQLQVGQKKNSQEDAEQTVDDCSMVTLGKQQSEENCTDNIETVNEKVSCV

Take `CCN1CCN(c2nc(C#CC(=O)c3ccccc3)cc3ccccc23)CC1` [Example 184, 1-(1-Ethylpiperazin-4-Yl)-3-Benzoylethynylisoquinoline Oxalate]: the Ki at serotonin 2 receptor came out at 122 nM; at serotonin 1A receptor, 30.9 nM.
With `CCN1CCN(c2nc(C#Cc3ccc(OC)cc3OC)cc3ccccc23)CC1` [Example 185, 1-(1-Ethylpiperazin-4-Yl)-3-(2,4-Dimethoxyphenylethynyl)Isoquinoline Dihydrochloride], the Ki at serotonin 2 receptor was found to be 2 nM; at serotonin 1A receptor it was 21.2 nM.
As for `CCN1CCN(c2nc(C#Cc3cncc(CCCOC)c3)cc3ccccc23)CC1` [Example 186, 1-(1-Ethylpiperazin-4-Yl)-3-[3-(3-Methoxypropyl)-5-Pyridyl]Ethynylisoquinoline], the Ki at serotonin 2 receptor was determined as 4.5 nM; at serotonin 1A receptor, 2.83 nM.
On to `CCN1CCN(c2nc(C#Cc3ncccc3OCCO)cc3ccccc23)CC1` [Example 188, 1-(1-Ethylpiperazin-4-Yl)-3-[3-(2-Hydroxyethoxy)-2-Pyridyl]Ethynylisoquinoline], for which the Ki is 107 nM on serotonin 2 receptor and 4.47 nM at serotonin 1A receptor.
As to `CCN1CCN(c2nc(/C=C/c3ccccc3)cc3ccccc23)CC1` [Example 189, 1-(1-Ethylpiperazin-4-Yl)-3-(Trans-2-Phenylethenyl)Isoquinoline Dihydrochloride], the Ki on serotonin 2 receptor worked out at 0.44 nM; at serotonin 1A receptor, 37.2 nM.
Take `CCN1CCN(c2nc(/C=C/c3ccc(OC)cc3)cc3ccccc23)CC1` [Example 190, 1-(1-Ethylpiperazin-4-Yl)-3-[Trans-2-(4-Methoxyphenyl)Ethenyl]Isoquinoline Dihydrochloride]: the results for the Ki at serotonin 2 receptor and on serotonin 1A receptor were 3.85 nM and 35 nM, respectively.
In the case of `CCN1CCN(c2nc(/C=C\c3ccc(OC)cc3)cc3ccccc23)CC1` [Example 191, 1-(1-Ethylpiperazin-4-Yl)-3-[Cis-2-(4-Methoxyphenyl)Ethenyl]Isoquinoline Oxalate], the values for the Ki on serotonin 2 receptor and on serotonin 1A receptor were 0.93 nM and 13 nM, respectively.
On the same counts, the results for `CCN1CCN(c2nc(C(C)=Cc3ccccc3)cc3ccccc23)CC1` [Example 192, 1-(1-Ethylpiperazin-4-Yl)-3-(Cis-1-Methyl-2-Phenylethenyl) Isoquinoline Oxalate] are 7.85 nM and 66.7 nM.
For the compound `CCN1CCN(c2nc(/C=C/c3ccccc3OCCO)cc3ccccc23)CC1` [Example 194, 1-(1-Ethylpiperazin-4-Yl)-3-[trans-2-(2-Hydroxyethoxyphenyl)Ethenyl]Isoquinoline Oxalate], the Ki on serotonin 2 receptor turned out to be 33.7 nM; on serotonin 1A receptor, 11.2 nM.
With `CCN1CCN(c2nc(/C=C/c3ccccc3OC)cc3ccccc23)CC1` [Example 195, 1-(1-Ethylpiperazin-4-Yl)-3-[Trans-2-(2-Methoxyphenyl)Ethenyl]Isoquinoline Oxalate], the results for the Ki on serotonin 2 receptor and at serotonin 1A receptor were 37.2 nM and 23 nM, respectively.
As for `CCN1CCN(c2nc(/C=C(\C)c3ccccc3)cc3ccccc23)CC1` [Example 196, 1-(1-Ethylpiperazin-4-Yl)-3-(Trans-2-Methyl-2-Phenylethen-1-Yl)Isoquinoline Oxalate], the Ki on serotonin 2 receptor worked out at 6.44 nM; at serotonin 1A receptor it was 66.7 nM.
As for `CCN1CCN(c2nc(/C=C/c3ccccc3F)cc3ccccc23)CC1` [Example 197, 1-(1-Ethylpiperazin-4-Yl)-3-[Trans-2-(2-Fluorophenyl)Ethenyl]isoquinoline Oxalate], the Ki at serotonin 2 receptor was found to be 4.26 nM; on serotonin 1A receptor, 70.7 nM.
For the compound `CCN1CCN(c2nc(/C=C/c3ccc(OCCO)cc3)cc3ccccc23)CC1` [Example 198, 1-(1-Ethylpiperazin-4-Yl)-3-[(E)-4-(2-Hydroxyethoxy)Styryl]Isoquinoline Oxalate], the Ki at serotonin 2 receptor stood at 9.08 nM; at serotonin 1A receptor, 45.5 nM.
Turning to `CCN1CCN(c2nc(/C=C/c3cccc(OCCO)c3)cc3ccccc23)CC1` [Example 199, 1-(1-Ethylpiperazin-4-Yl)-3-(Trans-2-(3-(2-Hydroxyethoxy)Phenyl]Ethenyl]isoquinoline Oxalate], the figures for the Ki at serotonin 2 receptor and at serotonin 1A receptor were 3.8 nM and 3.27 nM, respectively.
Consider `CCN1CCN(c2nc(/C=C/c3ccc(N4CCOCC4)nc3)cc3ccccc23)CC1` [Example 200, 3-[(E)-2-[2-(4-Morpholinyl)Pyridin-5-Yl]Ethenyl]-1-(4-Ethylpiperazin-1-Yl)Isoquinoline Hydrochloride], for which the Ki turned out to be 7.33 nM on serotonin 2 receptor and 77.3 nM at serotonin 1A receptor.
Take `CCN1CCN(c2nc(/C=C/c3ccc(S(C)(=O)=O)cc3)cc3ccccc23)CC1` [Example 201, 3-[(E)-2-(4-Methylsulfonylphenyl)Ethenyl]-1-(4-Ethylpiperazin-1-Yl)Isoquinoline Hydrochloride]: the figures for the Ki on serotonin 2 receptor and on serotonin 1A receptor were 2.96 nM and 35.9 nM, respectively.
On the same counts, the results for `CCN1CCN(c2nc(/C=C/c3ccc(CS(C)(=O)=O)cc3)cc3ccccc23)CC1` [Example 203, 3-[(E)-2-(4-Methylsulfonylmethylphenyl)Ethenyl]-1-(4-Ethylpiperazin-1-Yl)Isoquinoline Oxalate] are 0.52 nM and 5.5 nM.
In the case of `CCN1CCN(c2nc(/C=C/c3cccc(N4CCOCC4)c3)cc3ccccc23)CC1` [Example 204, 3-{(E)-2-[3-(4-Morpholinyl)Phenyl]Ethenyl}-1-(4-Ethylpiperazin-1-Yl)Isoquinoline Oxalate], the results for the Ki at serotonin 2 receptor and on serotonin 1A receptor were 18.5 nM and 25.5 nM, respectively.
On to `CCN1CCN(c2nc(/C=C/c3ccc(N4CCOCC4)cc3)cc3ccccc23)CC1` [Example 205, 3-{(E)-2-[4-(4-Morpholinyl)Phenyl]Ethenyl}-1-(4-Ethylpiperazin-1-Yl)Isoquinoline Oxalate], for which the Ki on serotonin 2 receptor amounted to 0.98 nM; at serotonin 1A receptor it was 33.1 nM.
With `CCN1CCN(c2nc(/C=C(\C)c3ccc(N4CCOCC4)cc3)cc3ccccc23)CC1` [Example 206, 3-{(E)-2-Methyl-2-[4-(4-Morpholinyl)Phenyl]Ethenyl}-1-(4-Ethylpiperazin-1-Yl)Isoquinoline Oxalate], the Ki at serotonin 2 receptor came to 2.59 nM; at serotonin 1A receptor it was 77.1 nM.
Consider `CCN1CCN(c2nc(/C=C(\C)c3cccc(N4CCOCC4)c3)cc3ccccc23)CC1` [Example 207, 3-{(E)-2-Methyl-2-[3-(4-Morpholinyl)Phenyl]Ethenyl}-1-(4-Ethylpiperazin-1-Yl)Isoquinoline Oxalate], for which the Ki was 17.9 nM on serotonin 2 receptor and 22.2 nM at serotonin 1A receptor.
Turning to `CCN1CCN(c2nc(/C=C/c3ccccn3)cc3ccccc23)CC1` [Example 209, 1-(1-Ethylpiperazin-4-Yl)-3-[Trans-2-(2-Pyridyl)Ethenyl]Isoquinoline Trihydrochloride], the results for the Ki at serotonin 2 receptor and at serotonin 1A receptor were 2.35 nM and 3.28 nM, respectively.
With `CCN1CCN(c2nc(/C=C/c3ccncc3)cc3ccccc23)CC1` [Example 210, 1-(1-Ethylpiperazin-4-Yl)-3-[Trans-2-(4-Pyridyl)Ethenyl]Isoquinoline], the Ki at serotonin 2 receptor amounted to 3.95 nM; on serotonin 1A receptor, 6.56 nM.
On the same counts, the results for `CCN1CCN(c2nc(/C=C/Cc3ccccc3OC)cc3ccccc23)CC1` [Example 211] are 40.2 nM and 5.17 nM.
In the same order, the values of `CCN1CCN(c2nc(/C=C/c3ccc(N4CCOCC4)nn3)cc3ccccc23)CC1` [Example 214, 3-{(E)-2-[3-(4-Morpholinyl)Pyridazin-6-Yl]Ethenyl}-1-(4-Ethylpiperazin-1-Yl)Isoquinoline Oxalate] are 7.59 nM and 15.6 nM.
With `CCN1CCN(c2nc(/C=C/c3cc(N4CCOCC4)ncn3)cc3ccccc23)CC1` [Example 215, 3{(E)-2-[4-(4-morpholinyl)pyrimidin-6-yl]ethenyl}-1-(4-ethylpiperazin-1-yl)isoquinoline oxalate], the Ki was 20.9 nM at serotonin 2 receptor and 51.9 nM on serotonin 1A receptor.
Consider `CCN1CCN(c2nc(/C=C/c3cncc(N4CCOCC4)n3)cc3ccccc23)CC1` [Example 216, 3-{(E)-2-[2-(4-morpholinyl)pyrazin-6-yl]ethenyl}-1-(4-ethylpiperazin-1-yl)isoquinoline oxalate], for which the Ki on serotonin 2 receptor worked out at 15.5 nM; on serotonin 1A receptor, 16.6 nM.
On to `CCN1CCN(c2nc(CNc3ccc(OC)cc3)cc3ccccc23)CC1` [Example 219, 1-(1-ethylpiperazin-4-yl)-3-(4-methoxyanilinomethyl)isoquinoline oxalate], for which the Ki turned out to be 5.92 nM on serotonin 2 receptor and 2.99 nM at serotonin 1A receptor.
Take `CCN1CCN(c2nc(-c3ccc(OC)cc3)cc3cccc(F)c23)CC1` [Example 233, 1-(1-ethylpiperazin-4-yl)-8-fluoro-3-(4-methoxyphenyl)isoquinoline dihydrochloride]: the values for the Ki at serotonin 2 receptor and at serotonin 1A receptor were 1.97 nM and 200 nM, respectively.
Regarding `CCN1CCN(c2nc(-c3ccc(OCCO)cc3)cc3cccc(F)c23)CC1` [Example 234, 1-(1-ethylpiperazin-4-yl)-8-fluoro-3-[4-(2-hydroxyethoxy)phenyl]isoquinoline dihydrochloride], the Ki amounted to 1.11 nM on serotonin 2 receptor and 129 nM on serotonin 1A receptor.
As to `CCS(=O)(=O)NCc1ccc(-c2cc3ccccc3c(N3CCN(CCO)CC3)n2)cc1` [Example 243, 3-(4-ethylsulfonylaminomethylphenyl)-1-[4-(2-hydroxyethyl)piperazin-1-yl]isoquinoline Hydrochloride], the results for the Ki at serotonin 2 receptor and on serotonin 1A receptor were 6.7 nM and 13 nM, respectively.
